Test results reported in patent EP4664463A1, “COMPUTER-IMPLEMENTED METHOD FOR OLFACTORY PROPERTY PREDICTION” (Givaudan SA, priority 2024, dated 2025).
Entries after “also recorded” stand apart in the source; their conditions may differ. Where two headings read alike, the source gives them in different places. Marks after values point to notes of the source that are not given here. Blank lines part the entries; values can stand above or below the compound they belong to.

How the values were obtained:
[1] = tested on: OR10H5; test: Luciferase dose-response, wild-type vs changed C-terminus (SEQ ID NO: 86); format: cell-based, human
Description: (§1) To create an expression plasmid, an OR coding sequence fused at the end of TM7 to the desired C-terminus sequence was synthesized by a DNA synthesis service provider (BioCat GmbH, Germany) and inserted into pcDNA3.1(+) (Invitrogen, MA, USA) downstream of the CMV promoter sequence (SEQ ID NO: 82) using BamHI and Notl restriction sites. All the synthetic OR nucleotide sequences described below in Examples 1-15 further contained at their N-terminus a nucleotide sequence encoding a signal peptide (mmLucy-FLAG-rho, SeQ ID NOs: 80, 81) and at the C-terminus the bgh terminator sequence (SEQ ID NO: 83). All the OR expression plasmids also contain a Kozak sequence (GCCACC) between the BamHI restriction site and the start codon of the signal peptide. These plasmids thus contain a constitutively expressed OR gene.

[2] = target: T1, OR10H5 (Homo sapiens, UniProt Q8NGA6); test: as above; format: cell-based
T1 construct: expressed in transfected cells; host or cells: HEK293T cells stably expressing human RTP1S (V227I) and RTP2 (L220R)
Description: as §1
T1 sequence (Q8NGA6 with tags, fused parts or gaps): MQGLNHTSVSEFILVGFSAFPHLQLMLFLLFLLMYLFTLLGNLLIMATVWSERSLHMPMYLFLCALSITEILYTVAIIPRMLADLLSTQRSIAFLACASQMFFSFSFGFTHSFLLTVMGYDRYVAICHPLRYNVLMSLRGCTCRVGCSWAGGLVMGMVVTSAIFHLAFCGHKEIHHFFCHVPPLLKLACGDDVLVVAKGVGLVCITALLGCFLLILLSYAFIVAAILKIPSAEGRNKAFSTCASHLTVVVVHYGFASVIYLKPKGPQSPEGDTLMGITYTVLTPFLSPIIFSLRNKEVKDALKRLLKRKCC

[3] = target: T2, OR10H5 (Homo sapiens, UniProt Q8NGA6); test: as above; format: cell-based; settings: wild-type
T2 construct: expressed in transfected cells; host or cells: HEK293T cells stably expressing human RTP1S (V227I) and RTP2 (L220R)
Description: as §1
T2 sequence (Q8NGA6 whole entry): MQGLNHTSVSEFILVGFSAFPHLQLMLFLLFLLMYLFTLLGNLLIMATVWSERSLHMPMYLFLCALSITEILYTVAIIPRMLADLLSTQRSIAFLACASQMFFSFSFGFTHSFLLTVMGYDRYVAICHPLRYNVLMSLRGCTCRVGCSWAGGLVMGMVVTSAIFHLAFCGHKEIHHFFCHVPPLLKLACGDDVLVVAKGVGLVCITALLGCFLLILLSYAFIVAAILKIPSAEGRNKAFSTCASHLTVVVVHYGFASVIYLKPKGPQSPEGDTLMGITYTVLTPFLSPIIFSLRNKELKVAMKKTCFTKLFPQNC

[4] = target: T3, OR1C1 (Homo sapiens, UniProt Q15619); test: cell-based; format: cell-based
T3 construct: expressed in transfected cells; host or cells: HEK293T cells stably expressing human RTP1S (V227I) and RTP2 (L220R)
Description: as §1
T3 sequence (Q15619 whole entry): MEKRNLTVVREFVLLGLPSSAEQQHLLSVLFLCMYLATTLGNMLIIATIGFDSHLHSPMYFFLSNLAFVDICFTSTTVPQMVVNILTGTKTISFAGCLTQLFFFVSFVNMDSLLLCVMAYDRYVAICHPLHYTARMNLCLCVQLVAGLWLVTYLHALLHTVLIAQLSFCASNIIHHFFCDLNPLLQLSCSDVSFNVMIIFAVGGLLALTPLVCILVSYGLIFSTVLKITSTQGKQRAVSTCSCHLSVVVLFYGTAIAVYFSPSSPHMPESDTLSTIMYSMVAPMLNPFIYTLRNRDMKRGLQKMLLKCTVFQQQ

[5] = tested on: OR1C1; test: cell-based; format: cell-based, human
Description: as §1

[6] = target: T4, OR1C1 (Homo sapiens, UniProt Q15619); test: cell-based; format: cell-based; remark: listed apart in the source
T4 construct: expressed in transfected cells; host or cells: HEK293T cells stably expressing human RTP1S (V227I) and RTP2 (L220R)
Description: as §1
T4 sequence (Q15619 with tags, fused parts or gaps): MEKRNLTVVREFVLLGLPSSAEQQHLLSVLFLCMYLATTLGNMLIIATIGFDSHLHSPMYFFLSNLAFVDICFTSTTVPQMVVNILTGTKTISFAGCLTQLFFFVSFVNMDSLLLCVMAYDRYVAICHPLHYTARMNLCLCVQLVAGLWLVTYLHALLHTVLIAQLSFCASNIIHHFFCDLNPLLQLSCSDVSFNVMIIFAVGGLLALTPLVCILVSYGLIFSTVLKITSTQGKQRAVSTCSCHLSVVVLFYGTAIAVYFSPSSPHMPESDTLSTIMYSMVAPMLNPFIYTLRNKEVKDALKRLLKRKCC

[7] = target: T5, OR5AN1 (Homo sapiens, UniProt Q8NGI8); test: Chimeric OR5AN1 with C-terminal sequence of OR1N2 (luciferase); format: cell-based
T5 construct: expressed in transfected cells; host or cells: HEK293T stably expressing human RTP1S(V227I) and RTP2(L220R)
Description: Similarly, the C-terminal sequence of OR5AN1 was replaced with the C-terminal sequence of the ambrettolide receptor OR1 N2.

[8] = target: T6, OR56A4 (Homo sapiens, UniProt Q8NGH8); test: cell-based; format: cell-based
T6 construct: expressed in transfected cells; host or cells: HEK293T stably expressing human RTP1S(V227I) and RTP2(L220R)
T6 sequence (Q8NGH8 1-313): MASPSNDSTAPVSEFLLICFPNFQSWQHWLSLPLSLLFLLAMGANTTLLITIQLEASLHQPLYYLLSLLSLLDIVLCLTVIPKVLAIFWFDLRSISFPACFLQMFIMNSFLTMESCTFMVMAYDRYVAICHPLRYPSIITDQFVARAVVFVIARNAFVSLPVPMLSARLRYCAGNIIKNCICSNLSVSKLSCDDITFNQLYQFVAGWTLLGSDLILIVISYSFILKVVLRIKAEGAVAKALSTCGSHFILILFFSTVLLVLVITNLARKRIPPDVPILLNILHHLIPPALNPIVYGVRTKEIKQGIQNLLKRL
Description: as §1
(§2) Activation of OR56A4 by acids of different chain length was further tested. […] Replacing the wild-type with the C-terminal sequence of the functional OR51 E1 did reduce activity. However, using the optimized sequence form Examples 1-5 led to a strong signal and much lower detection threshold upon addition of all three acids.

[9] = tested on: OR56A4; test: cell-based; format: cell-based, human
Description: as §1, §2

[10] = target: T7, OR56A4 (Homo sapiens, UniProt Q8NGH8, T299N); test: cell-based; format: cell-based
T7 construct: expressed in transfected cells; host or cells: HEK293T stably expressing human RTP1S(V227I) and RTP2(L220R)
Description: as §1, §2

[11] = target: T8, OR14J1 (Homo sapiens, UniProt Q9UGF5); test: Activation of modified OR14J1 (SEQ ID NO: 221), library hit and dose-response; format: cell-based; settings: SEQ ID 221
T8 construct: expressed in transfected cells; host or cells: HEK293T stably expressing human RTP1S(V227I) and RTP2(L220R) (general method)
Protocol: Parallel transfection experiments were conducted with all these plasmids (n = 408) and cells expressing the different OR were stimulated with one given ligand at a time, tested at the maximal, clearly non-cytotoxic concentration. In total 26 different ligands were tested on the full library of class II receptors.
Table 16. Ligands tested on the full library of OR and cognate receptors identified for these ligands

[12] = target: T9, OR4S2 (Homo sapiens, UniProt Q8NH73, A290K); test: cell-based; format: cell-based
T9 construct: expressed in transfected cells; host or cells: HEK293T stably expressing human RTP1S(V227I) and RTP2(L220R)
Description: as §1

[13] = tested on: OR4S2; test: cell-based; format: cell-based, human
Description: as §1

[14] = target: T10, OR4S2 (Homo sapiens, UniProt Q8NH73); test: cell-based; format: cell-based
T10 construct: expressed in transfected cells; host or cells: HEK293T stably expressing human RTP1S(V227I) and RTP2(L220R)
Description: as §1

[15] = changed C-term SEQ ID NO: 86, read-out: Potency EC50
[16] = wild-type, read-out: Potency EC50

T8 sequence (Q9UGF5 with tags, fused parts or gaps): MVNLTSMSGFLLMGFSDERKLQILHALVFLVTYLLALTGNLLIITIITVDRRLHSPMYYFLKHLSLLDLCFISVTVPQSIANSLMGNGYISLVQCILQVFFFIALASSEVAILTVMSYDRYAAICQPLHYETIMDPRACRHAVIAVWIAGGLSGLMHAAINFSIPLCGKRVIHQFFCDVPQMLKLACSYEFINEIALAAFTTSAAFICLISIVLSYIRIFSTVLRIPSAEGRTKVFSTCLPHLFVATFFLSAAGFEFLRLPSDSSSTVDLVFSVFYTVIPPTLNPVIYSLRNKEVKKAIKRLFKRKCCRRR
T9 sequence (Q8NH73 with tags, fused parts or gaps A290K): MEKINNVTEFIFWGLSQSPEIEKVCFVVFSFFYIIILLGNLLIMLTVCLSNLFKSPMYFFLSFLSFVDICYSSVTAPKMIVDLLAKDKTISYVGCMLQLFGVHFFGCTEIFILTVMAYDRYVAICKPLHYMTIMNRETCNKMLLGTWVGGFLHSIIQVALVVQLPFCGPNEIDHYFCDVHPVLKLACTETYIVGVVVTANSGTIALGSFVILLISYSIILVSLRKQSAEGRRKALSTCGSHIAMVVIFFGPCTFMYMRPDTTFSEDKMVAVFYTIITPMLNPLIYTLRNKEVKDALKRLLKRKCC
T7 sequence (Q8NGH8 with tags, fused parts or gaps T299N): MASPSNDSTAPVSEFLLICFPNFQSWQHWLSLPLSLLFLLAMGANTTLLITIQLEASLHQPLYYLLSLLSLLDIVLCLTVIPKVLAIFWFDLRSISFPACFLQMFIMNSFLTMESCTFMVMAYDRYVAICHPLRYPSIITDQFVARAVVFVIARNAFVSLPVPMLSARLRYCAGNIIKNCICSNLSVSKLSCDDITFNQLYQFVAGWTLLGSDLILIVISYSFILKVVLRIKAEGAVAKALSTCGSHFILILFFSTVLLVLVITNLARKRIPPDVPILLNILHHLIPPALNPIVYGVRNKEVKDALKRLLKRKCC
T5 sequence (Q8NGI8 with tags, fused parts or gaps limits assumed): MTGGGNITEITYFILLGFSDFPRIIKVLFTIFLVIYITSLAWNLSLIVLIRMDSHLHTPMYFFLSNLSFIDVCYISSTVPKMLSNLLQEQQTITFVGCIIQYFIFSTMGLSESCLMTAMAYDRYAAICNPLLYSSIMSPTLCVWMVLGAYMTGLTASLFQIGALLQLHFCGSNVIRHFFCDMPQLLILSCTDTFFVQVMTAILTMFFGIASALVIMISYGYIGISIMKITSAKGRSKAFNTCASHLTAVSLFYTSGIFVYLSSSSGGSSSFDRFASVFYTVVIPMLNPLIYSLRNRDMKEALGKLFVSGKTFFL

SMILES: Cc1ccc2c(c1)OCC(=O)CO2 [Calone]
Comments on efficacy [1]: 3-fold lower maximal induction for wild-type
Fold-improvement threshold [1]: 2.5
Fold-improvement potency ([1]; higher EC50 due to much higher efficacy of optimized C-terminus): 0.7 *
EC50 [2, 15]: 60 µM
Detection threshold; concentration for 2-fold induction ([2]; changed C-term. SEQ ID NO: 86): 24.3 µM
Detection threshold; concentration for 2-fold induction [3]: 60.1 µM
EC50 ([3]; read-out: Potency EC50): 41 µM

SMILES: C=CC(C)(O)CCC=C(C)C (centres unmarked) [Linalool]
Detection threshold; concentration for 2-fold induction [4]: 34.7 µM
EC50 [4, 16]: 379 µM
Fold-improvement potency [5]: 1.9
Fold-improvement threshold [5]: 2.1
Detection threshold; concentration for 2-fold induction [6]: 16.2 µM
EC50 [6, 15]: 202 µM

SMILES: CC(=O)c1c(C)c([N+](=O)[O-])c(C(C)(C)C)c([N+](=O)[O-])c1C [Musk ketone]
functional response [7]: not showing any functional response

Detection threshold; concentration for 2-fold induction [8]: 43 µM
activation of wild-type OR56A4 ([8]; wild-type): activated at high concentration
EC50 [8, 16]: 114 µM
Detection threshold; concentration for 2-fold induction [10]: 3.2 µM
EC50 [10, 15]: 22 µM
SMILES: CCCCCCCCCCC(=O)O [Undecanoic acid]
Fold-improvement potency [9]: 5.1
Fold-improvement threshold [9]: 13.5

SMILES: C[C@H]1CCC2(O)C(C)(C)C3CCC2(C)C1C3 (stereo partly drawn) [Patchoulol, (4S)-4,8a,9,9-tetramethyloctahydro-1,6-methanonaphthalen-1(2H)-ol]
activation of OR14J1 [11]: activate OR14J1; also recorded: strong induction

SMILES: c1ccc2scnc2c1 [Benzothiazole]
Detection threshold; concentration for 2-fold induction [12]: 12.5 µM
EC50 [12, 15]: 104 µM
Comments on efficacy [13]: 2-fold lower maximal induction for wild-type
Fold-improvement potency [13]: 1.3
Fold-improvement threshold [13]: 2.4
Detection threshold; concentration for 2-fold induction [14]: 29.4 µM
EC50 [14, 16]: 137 µM
